Experimental data from US6689806B1, “Indolinone compounds as kinase inhibitors” (Sugen, Inc., priority 1999, dated 2004).
Like-named read-outs stand apart in the source and are kept apart here.

Tests used:
Format in all cases: cell-based
Her2 [1] = target: T1, Her2 (Homo sapiens, UniProt P04626); experiment: HER-2 ELISA: EGF receptor-HER2 chimeric receptor assay in whole cells (HER2 kinase); conditions: NIH3T3 cells with EGFR/HER2 chimeric receptor, phosphotyrosine ELISA
T1 construct: fused on or other part: P00533 (Epidermal growth factor receptor)
How it was run: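 NIH3T3 cells expressing an EGFR extracellular/HER2 kinase-domain chimera, serum-reduced (0.5%), pretreated 2 h with compound (1% DMSO final), then stimulated 5 min with 100 nM EGF at room temperature. Lysate phosphotyrosine quantified by anti-pTyr ELISA, OD 410 nm; % inhibition after negative-control subtraction.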

Her2 [2] = target: T1, Her2; experiment: EGF-induced Her2-driven BrdU incorporation; conditions: 3T3 cells with EGF-R/Her2 chimeric receptor, EGF 2 nM, read-out: BrdU DNA syn. HER2 IC50
Description: (§1) The cellular/biologic assays described herein measure the amount of DNA made in response to activation of a test kinase, which is a general measure of a proliferative response. The general procedure for this assay is as follows: a compound is introduced to cells expressing the test kinase, either naturally or recombinantly, for some period of time after which, if the test kinase is a receptor, a ligand known to activate the receptor is added. After incubation at least overnight, a DNA labeling reagent such as Bromodeoxy-uridine (BrdU) or 3H-thymidine is added. The amount of labeled DNA is detected with either an anti-BrdU antibody or by measuring radioactivity and is compared to control cells not contacted with a test compound.
EGF-Induced Her2-Driven BrdU Incorporation
(8) 3T3 cell line engineered to express a chimeric receptor having the extra-cellular domain of EGF-R and the intra-cellular domain of Her2.
(1) Cells are seeded at 8000 cells/well in DMEM, 10% CS, 2 mM Gln in a 96-well plate. Cells are incubated overnight at 37° C. in 5% CO2.
(§2) (2) After 24 hours, the cells are washed with PBS, and then are serum starved in serum free medium (0% CS DMEM with 0.1% BSA) for 24 hours.
(§3) (3) On day 3, ligand (EGF=2 nM, prepared in DMEM with 0.1% BSA) and test compounds are added to the cells simultaneously. The negative control wells receive serum free DMEM with 0.1% BSA only; the positive control cells receive the ligand (EGF) but no test compound. Test compounds are prepared in serum free DMEM with ligand in a 96 well plate, and serially diluted for 7 test concentrations.
(4) After 20 hours of ligand activation, diluted BrdU labeling reagent (1:100 in DMEM, 0.1% BSA) is added and the cells are incubated with BrdU (final concentration=[…]) for 1.5 hours.
(§4) (10) The absorbance of the samples are measured at 410 nm (in “dual wavelength” mode with a filter reading at 490 nm, as a reference wavelength) on a Dynatech ELISA plate reader.

EGFR = EGFR (Homo sapiens, UniProt P00533); experiment: EGF-induced BrdU incorporation assay; set-up: expressed in transfected cells; host or cells: 3T3; conditions: 3T3 cells expressing human EGF-R, EGF 2 nM, read-out: BrdU DNA syn. EGFr IC50
Description: as §1
EGF-Induced BrdU Incorporation Assay
(8) 3T3 cell line genetically engineered to express human EGF-R.
(1) Cells are seeded at 8000 cells/well in 10% CS, 2 mM Gin in DMEM, in a 96 well plate. Cells are incubated overnight at 37° C. in 5% CO2.
as §2
as §3, with “(EGF, 2” for “(EGF=2”, “0.1%/BSA)” for “0.1% BSA)”
(4) After 20 hours of ligand activation, diluted BrdU labeling reagent (1: 100 in DMEM, 0.1% BSA) is added and the cells are incubated with BrdU (final concentration=10 μM) for 1.5 hours.
as §4

Sequence of EGFR (P00533 25-1210): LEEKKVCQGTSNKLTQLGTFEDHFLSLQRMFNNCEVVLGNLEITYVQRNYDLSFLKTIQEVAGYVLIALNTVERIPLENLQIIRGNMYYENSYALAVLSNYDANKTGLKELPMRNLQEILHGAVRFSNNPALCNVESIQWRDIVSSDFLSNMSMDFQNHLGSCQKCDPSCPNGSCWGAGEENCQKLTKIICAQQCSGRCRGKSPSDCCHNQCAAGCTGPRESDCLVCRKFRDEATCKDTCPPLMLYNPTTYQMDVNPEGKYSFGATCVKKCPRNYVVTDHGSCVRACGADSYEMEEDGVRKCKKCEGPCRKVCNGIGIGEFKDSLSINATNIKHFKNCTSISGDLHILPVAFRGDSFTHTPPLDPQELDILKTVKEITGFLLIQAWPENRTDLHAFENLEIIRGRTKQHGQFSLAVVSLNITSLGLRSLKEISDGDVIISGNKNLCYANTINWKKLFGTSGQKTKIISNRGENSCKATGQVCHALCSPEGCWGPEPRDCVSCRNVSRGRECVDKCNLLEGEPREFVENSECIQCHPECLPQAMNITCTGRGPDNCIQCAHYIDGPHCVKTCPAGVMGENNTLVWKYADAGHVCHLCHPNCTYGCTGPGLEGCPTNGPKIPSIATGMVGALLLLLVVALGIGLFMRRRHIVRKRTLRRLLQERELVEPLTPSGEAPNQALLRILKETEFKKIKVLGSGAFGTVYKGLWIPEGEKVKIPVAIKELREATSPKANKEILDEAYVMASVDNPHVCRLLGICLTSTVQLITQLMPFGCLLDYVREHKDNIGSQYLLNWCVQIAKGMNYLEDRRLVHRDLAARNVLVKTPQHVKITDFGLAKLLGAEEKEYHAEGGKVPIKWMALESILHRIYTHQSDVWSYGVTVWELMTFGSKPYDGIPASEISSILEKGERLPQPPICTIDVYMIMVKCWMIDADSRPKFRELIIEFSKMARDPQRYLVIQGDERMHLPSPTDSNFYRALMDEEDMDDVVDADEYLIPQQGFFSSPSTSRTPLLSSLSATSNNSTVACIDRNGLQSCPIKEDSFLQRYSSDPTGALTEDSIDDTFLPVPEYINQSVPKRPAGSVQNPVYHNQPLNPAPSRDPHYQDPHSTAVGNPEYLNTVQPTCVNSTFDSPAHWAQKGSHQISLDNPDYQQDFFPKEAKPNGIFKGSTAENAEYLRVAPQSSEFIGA
T1 sequence (P04626 676-1255 limits assumed): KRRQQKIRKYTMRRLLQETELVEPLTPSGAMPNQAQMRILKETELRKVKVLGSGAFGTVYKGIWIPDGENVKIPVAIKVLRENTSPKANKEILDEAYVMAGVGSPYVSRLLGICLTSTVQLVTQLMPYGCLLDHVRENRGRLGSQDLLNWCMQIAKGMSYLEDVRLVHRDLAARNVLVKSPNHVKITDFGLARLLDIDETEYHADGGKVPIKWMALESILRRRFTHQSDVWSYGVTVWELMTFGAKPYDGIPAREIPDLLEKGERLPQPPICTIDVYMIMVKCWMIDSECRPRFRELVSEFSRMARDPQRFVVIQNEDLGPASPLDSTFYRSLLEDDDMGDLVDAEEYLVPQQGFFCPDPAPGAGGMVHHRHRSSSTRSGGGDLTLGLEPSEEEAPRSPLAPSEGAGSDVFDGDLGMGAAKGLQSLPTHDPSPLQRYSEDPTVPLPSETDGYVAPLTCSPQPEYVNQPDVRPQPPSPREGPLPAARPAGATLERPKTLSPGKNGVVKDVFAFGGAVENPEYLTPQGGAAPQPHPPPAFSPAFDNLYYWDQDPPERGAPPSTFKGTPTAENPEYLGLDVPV

Structure (SMILES) | IC50 (Her2 [1]; Table 5) [µM] | IC50 (Her2 [2]; Table 5) [µM] | IC50 (EGFR; Table 5) [µM] | IC50 (Her2 [1]; Table 7) [µM] | IC50 (Her2 [2]; Table 7) [µM] | IC50 (EGFR; Table 7) [µM]
COc1ccc(-c2ccc3c(c2)NC(=O)C3Cc2[nH]c(C)c(CCCN(C)C)c2C)cc1 (stereo not drawn) [AAI-22, 3-[4-(3-Dimethylaminopropyl)-3,5-dimethyl-1H-pyrrol-2-ylmethyl]-6-(4-methoxyphenyl)-1,3-dihydroindol-2-one] | 21.4 | > 50 | 27.6 |  |  | 
Cc1[nH]c(CC2C(=O)Nc3ccc(Cl)cc32)c(C)c1CCCN(C)C (stereo not drawn) [AAI-23, 5-Chloro-3-[4-(3-dimethylaminopropyl)-3,5-dimethyl-1H-pyrrol-2-ylmethyl]-1,3-dihydroindol-2-one] | 54.1 | > 50 | 32.2 |  |  | 
O=C1Nc2cc(-c3ccccc3)ccc2C1Cc1cccc(F)c1O (stereo not drawn) [AAI-24, 3-(3-Fluoro-2-hydroxybenzyl)-6-phenyl-1,3-dihydroindol-2-one] | 26.1 | 30.9 | > 50 |  |  | 
COc1ccc(CC2C(=O)Nc3cc(-c4ccccc4)ccc32)c(O)c1 (stereo not drawn) [AAI-25, 3-(2-Hydroxy-4-methoxybenzyl)-6-phenyl-1,3-dihydroindol-2-one] | > 100 | > 50 | > 50 |  |  | 
Cc1cccc(CC2C(=O)Nc3cccc(CCO)c32)n1 (stereo not drawn) [AAI-27, 4-(2-Hydroxyethyl)-3-(6-methylpyridin-2-ylmethyl)-1,3-dihydroindol-2-one] | > 100 | > 50 | > 50 |  |  | 
CC(C)c1cccc(OCCc2cccc3c2CC(=O)N3)c1 [IN-001, 4-[2-(3-Isopropyl-phenoxy)-ethyl]-1,3-dihydro-indol-2-one] |  |  |  | 16.6 | 28.9 | 32.5
CC(C)c1ccccc1OCCc1cccc2c1CC(=O)N2 [IN-002, 4-[2-(2-Isopropyl-phenoxy)-ethyl]-1,3-dihydro-indol-2-one] |  |  |  | 18 | 30 | 41.5
O=C1Cc2c(CCOc3cccc(-c4ccccc4)c3)cccc2N1 [IN-003, 4-[2-(Biphenyl-3-yloxy)-ethyl]-1,3-dihydro-indol-2-one] |  |  |  | 15.5 | 12.1 | 29
O=C1Nc2cccc(CCO)c2/C1=C\c1ccc(Br)cc1 [IN-004, 3-(4-Bromo-benzylidene)-4-(2-hydroxy-ethyl)-1,3-dihydro-indol-2-one] |  |  |  | 10.6 | 3.6 | 4.7
O=C1Nc2cccc(CCO)c2/C1=C/c1ccccn1 [IN-005, 4-(2-Hydroxy-ethyl)-3-pyridin-2-ylmethylene-1,3-dihydro-indol-2-one] |  |  |  | 12.9 | 1.6 | 3
Cc1cccc(/C=C2\C(=O)Nc3cccc(CCO)c32)n1 [IN-006] |  |  |  | 10.6 | 6.6 | 11.1
COc1ccc(/C=C2\C(=O)Nc3cccc(CCO)c32)cc1-c1cccs1 [IN-008, 4-(2-Hydroxy-ethyl)-3-(4-methoxy-3-thiophen-2-yl-benzylidene)-1,3-dihydro-indol-2-one] |  |  |  | 8.5 | 2.3 | 31.3
Cc1[nH]c(/C=C2\C(=O)Nc3cccc(CCOc4cccc(C(C)C)c4)c32)c(C)c1CCCN(C)C [IN-023] |  |  |  | > 100 | 33.8 | 28.7
Cc1[nH]c(/C=C2\C(=O)Nc3cccc(CCOc4ccc(C(C)C)cc4)c32)c(C)c1CCC(=O)O [IN-024, 3-(5-{4-[2-(4-Isopropyl-phenoxy)-ethyl]-2-oxo-1,2-dihydro-indol-3-ylidenemethyl}-2,4-dimethyl-1H-pyrro-3-yl)-propionic acid] |  |  |  | > 100 | > 50 | > 50
